Data from article PMC10859675, “Short‐chain mono‐carboxylates as negative modulators of allosteric transitions in Gloeobacter violaceus ligand‐gated ion channel, and impact of a pre‐β5 strand (Loop Ω) double mutation on crotonate, not butyrate effect” (Physiological Reports, 2024).
“And” between values parts separate entries of the source, which are not always exact repeats. Equal values may be shown once. Read-outs that look alike come from different tables or passages of the source.

Columns and labels:
WT GLIC [1] = target: T1, WT GLIC (Gloeobacter violaceus, UniProt Q7NDN8); assay: Whole-cell patch-clamp, protocol with pre-stimulation at low pHo, WT GLIC expressed in tk-ts13 cells; format: cell-based; conditions: for current in the presence of mono-CBX, % of control: 1 mM at pHo 5.0, WT sample of Figure 7, mean; for current in the presence of mono-CBX, % of control (100*I CBX/I CONTROL): 1 mM at pHo 5.0, WT sample of Figures 4 and 5, mean; for activity on GLIC current (NAM effect): 1 mM with pre-stimulation, pHo 5.0; for reversibility of negative modulation (slow components): after compound wash-out; for current in the presence of di-CBX, % of control: 10 mM at pHo 5.0, mean
T1 construct: expressed in transfected cells; host or cells: tk-ts13 cells, GLIC DNA in pMT3 vector
T1 sequence (Q7NDN8 44-359): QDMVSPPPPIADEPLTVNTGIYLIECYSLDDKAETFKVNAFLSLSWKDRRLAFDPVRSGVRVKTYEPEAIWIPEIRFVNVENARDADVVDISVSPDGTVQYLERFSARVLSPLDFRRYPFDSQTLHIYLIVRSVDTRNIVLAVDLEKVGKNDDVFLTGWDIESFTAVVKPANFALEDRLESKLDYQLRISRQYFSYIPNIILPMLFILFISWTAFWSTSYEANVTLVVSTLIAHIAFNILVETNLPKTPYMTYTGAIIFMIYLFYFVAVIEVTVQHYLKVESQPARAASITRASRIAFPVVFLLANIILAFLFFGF
Description: We give here the main points and some differences.
All solutions were prepared from the acid forms of the buffers/acido‐basic compounds (BAPTA, HEPES, MES, CBX, etc.). Stock 100 mmol/L (mM) mono‐CBX water solutions were prepared directly at pH 5 (NaOH/HCl), aliquoted and kept at −20°C.
Fit of concentration‐effect curves. For proton activation curves, the peak value (Ipk[pHo]; inward current value at maximal absolute value) within 30 s was considered (y), and a plot against H^+ activity value (x) was fitted with a 3‐parameter Hill equation: y=ymax*1/1+EC50nH/x^nH , giving I max, EC50, and pH50 = −log(EC50). For potentiation/inhibition, data for [percent of control current] in the presence of the compound (y = 100*I CBX/I CONTROL) to [compound concentration value] […] For most compounds are presented: a fit of the mean of data (Graphs), and the mean ± standard deviation (SD) of data from individual cells (values in text).

WT GLIC [2] = target: T1, WT GLIC; assay: Whole-cell patch-clamp, direct protocol (pHo jump and compound applied simultaneously), WT GLIC in tk-ts13 cells; format: cell-based; conditions: 1 mM at pHo 5.0, direct protocol, individual cells; for ratio of peak current values in the presence and in the absence of compound (Ipk[CBX@5.0]/Ipk[pHo 5.0]): first CBX application; for current decay (h) time constant: m^4 h fit
Text: A direct protocol, where a pHo‐jump (from control pHo 7.5) and compound addition are applied simultaneously, was first used to examine the influence of saturated, short‐chain mono‐CBX compounds on low pHo‐induced GLIC current (Figure 1a).

GLIC E104Q = target: T2, GLIC E104Q (Gloeobacter violaceus, UniProt Q7NDN8, E146Q); format: cell-based; conditions: 1 mM at pHo 5.0, mean
T2 construct: expressed in transfected cells; host or cells: tk-ts13 cells, pMT3 vector
T2 sequence (Q7NDN8 44-359 E146Q): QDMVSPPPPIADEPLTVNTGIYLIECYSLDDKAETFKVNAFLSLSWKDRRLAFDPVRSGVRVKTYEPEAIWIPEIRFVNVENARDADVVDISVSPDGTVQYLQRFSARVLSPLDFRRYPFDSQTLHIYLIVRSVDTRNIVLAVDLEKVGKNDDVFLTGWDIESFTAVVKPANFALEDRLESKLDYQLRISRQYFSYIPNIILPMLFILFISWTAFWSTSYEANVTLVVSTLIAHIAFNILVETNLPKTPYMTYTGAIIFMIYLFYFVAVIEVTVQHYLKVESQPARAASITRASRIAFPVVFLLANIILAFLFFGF
Description: (§1) ACET (Figure 4) and the 4‐carbon compounds BUTYR and CROTON (Figure 5) were tested on the CBX‐pockets single mutants, at 1 mM with pre‐stimulation at pHo 5.0.

GLIC E177A = target: T3, GLIC E177A (Gloeobacter violaceus, UniProt Q7NDN8, E219A); format: cell-based; conditions: 1 mM at pHo 5.0, mean
T3 construct: expressed in transfected cells; host or cells: tk-ts13 cells, pMT3 vector
T3 sequence (Q7NDN8 44-359 E219A): as the sequence (Q7NDN8 44-359 E146Q) above, with Q103E, E176A counted along it
Description: as §1

GLIC E181A = target: T4, GLIC E181A (Gloeobacter violaceus, UniProt Q7NDN8, E223A); format: cell-based; conditions: 1 mM at pHo 5.0, versus WT GLIC
T4 construct: expressed in transfected cells; host or cells: tk-ts13 cells, pMT3 vector
T4 sequence (Q7NDN8 44-359 E223A): as the sequence (Q7NDN8 44-359 E146Q) above, with Q103E, E180A counted along it
Description: as §1

GLIC R105A = target: T5, GLIC R105A (Gloeobacter violaceus, UniProt Q7NDN8, R147A); format: cell-based; conditions: 1 mM at pHo 5.0, mean
T5 construct: expressed in transfected cells; host or cells: tk-ts13 cells, pMT3 vector
T5 sequence (Q7NDN8 44-359 R147A): as the sequence (Q7NDN8 44-359 E146Q) above, with Q103E, R104A counted along it
Description: as §1

GLIC R77A = target: T6, GLIC R77A (Gloeobacter violaceus, UniProt Q7NDN8, R119A); format: cell-based; conditions: 1 mM at pHo 5.0, mean
T6 construct: expressed in transfected cells; host or cells: tk-ts13 cells, pMT3 vector
T6 sequence (Q7NDN8 44-359 R119A): as the sequence (Q7NDN8 44-359 E146Q) above, with R76A, Q103E counted along it
Description: as §1

GLIC Y102A = target: T7, GLIC Y102A (Gloeobacter violaceus, UniProt Q7NDN8, Y144A); format: cell-based; conditions: 1 mM at pHo 5.0, mean
T7 construct: expressed in transfected cells; host or cells: tk-ts13 cells, pMT3 vector
T7 sequence (Q7NDN8 44-359 Y144A): as the sequence (Q7NDN8 44-359 E146Q) above, with Y101A, Q103E counted along it
Description: as §1

GLIC D86A‐D88A = target: T8, GLIC D86A‐D88A (Gloeobacter violaceus, UniProt Q7NDN8, D128A/D130A); format: cell-based; conditions: 1 mM at pHo 5.0, Figure 7 sample, mean
T8 construct: expressed in transfected cells; host or cells: tk-ts13 cells, pMT3 vector
T8 sequence (Q7NDN8 44-359 D128A/D130A): as the sequence (Q7NDN8 44-359 E146Q) above, with D85A, D87A, Q103E counted along it
Text: (§2) Compound modulation of the D86A‐D88A pre‐β5 variant (AA), N152A mutant and WT GLIC, was investigated in the protocol with pre‐stimulation at pHo 5.0 (Figure 7).

GLIC N152A = target: T9, GLIC N152A (Gloeobacter violaceus, UniProt Q7NDN8, N194A); format: cell-based; conditions: 1 mM at pHo 5.0, mean
T9 construct: expressed in transfected cells; host or cells: tk-ts13 cells, pMT3 vector
T9 sequence (Q7NDN8 44-359 N194A): as the sequence (Q7NDN8 44-359 E146Q) above, with Q103E, N151A counted along it
Text: as §2

GLIC R133A [3] = target: T10, GLIC R133A (Gloeobacter violaceus, UniProt Q7NDN8, R175A); format: cell-based; design: expressed in transfected cells; host or cells: tk-ts13 cells, pMT3 vector; conditions: 1 mM at pHo 5.0, mean
T10 sequence (Q7NDN8 44-359 R175A): as the sequence (Q7NDN8 44-359 E146Q) above, with Q103E, R132A counted along it
Description: as §1

GLIC R133A [4] = target: T10, GLIC R133A; assay: Whole-cell patch-clamp, direct protocol, GLIC R133A
GLIC AA‐N152A = GLIC AA‐N152A (Gloeobacter violaceus, UniProt Q7NDN8, D128A/D130A/N194A); assay: Whole-cell patch-clamp with pre-stimulation, GLIC AA-N152A; conditions: CROTON 1 mM at pHo 5.0, single exponential fit
Chain of GLIC AA‐N152A (Q7NDN8 44-359 D128A/D130A/N194A): as the sequence (Q7NDN8 44-359 E146Q) above, with D85A, D87A, Q103E, N151A counted along it
Description: (§3) Nuclear injection of DNA was done on the day of reception of oocytes. […] Transfection was done within 24 h after cell seeding, using the DNA‐calcium phosphate co‐precipitation method. GFP‐positive cells were used for electrophysiology 1–2 days after transfection (tk‐ts13 cells), or 1–3 days after nuclear injection (oocytes). A mixture of DNAs coding for GLIC and GFP in separate pMT3 vectors was used, with amounts of [2 + 0.2] μg per 35 mm dish for transfections, or [0.04 + 0.02] g/L in water for injections.
(§4) The intracellular pipette solution was composed of (in mM): CsCl 150, MgCl2 1, HEPES 10, BAPTA 10, CsOH to pH 7.3. […] Lower pH values were reached by adding to this solution HCl 2 M in water (and more pH 7.5 solution to return pH up if necessary). […] A 3 M KCl, 5 g/L agar bridge was used to connect the reference electrode to the dish solution. […] Electric current flowing through the membrane from extracellular to intracellular face (inward current) is counted negative, and represented downwards in the figures. […]
(§5) Positive/negative modulation was evaluated as current in the presence of the compound, in percent of the control GLIC current value measured immediately before compound application (with a correction for GLIC current decay only for small inhibitions). […]

[5] = tested on: GLIC [AA + CBX‐pocket] triple mutants; assay: Whole-cell patch-clamp with pre-stimulation, [AA + CBX-pocket] triple mutants; conditions: 1 mM at pHo 5.0, compared to AA double mutant
Description: as §3, §4, §5

[6] = 5 or 10 mM, pre-stimulation at pHo 5.0, 2–5 cells each
[7] = pHo 5.5, mean ± SD, read-out: IC50 (from individual cells)
[8] = pHo 5.0, mean ± SD, read-out: IC50 (from individual cells)
[9] = SUCCIN 10 mM at pHo 5.0, without ACET, after ACET 1 mM 50 s, one cell

C[C@H](N)C(=O)O [(L)‐alanine]
effect on GLIC current (WT GLIC [1]; [6]): no effect

CC(=O)O [ACET, Ethanoic acid]
current in the presence of mono-CBX, % of control (WT GLIC [1]): 12.2 % of control
current in the presence of mono-CBX, % of control (100*I CBX/I CONTROL) (WT GLIC [1]): 12.2 % of control
activity on GLIC current (NAM effect) (WT GLIC [1]): active
GLIC current in the presence of ACET, % of control (WT GLIC [1]; ACET 1 mM at pHo 5.0, 50-180 s application, individual cells): 17 % of control and 6.6 % of control and 5.5 % of control and 17.2 % of control and 11.3 % of control
reversibility of negative modulation (slow components) (WT GLIC [1]): 3 to 10 min
slope parameter (fit of the mean value) (WT GLIC [1]; pHo 5.5, 10 cells): 1.6
IC50 (WT GLIC [1]; pHo 5.5, 10 cells, read-out: IC50 (sigmoid fit of the mean value)): 136 µM
IC50 (WT GLIC [1]; [7]): 128 µM
ratio of peak current values in the presence and in the absence of compound (Ipk[CBX@5.0]/Ipk[pHo 5.0]) (WT GLIC [2]): 0.400 and 0.424 and 0.533 and 0.575
current decay (h) time constant (WT GLIC [2]): 2.90 s and 3.13 s and 3.33 s and 5.62 s
current in the presence of mono-CBX, % of control (GLIC E104Q): 47.6 % of control
current in the presence of mono-CBX, % of control (GLIC E177A): 14.9 % of control
impact of the E181A substitution on the NAM effect (GLIC E181A): no impact
current in the presence of mono-CBX, % of control (GLIC R105A): 17.1 % of control
current in the presence of mono-CBX, % of control (GLIC R77A): 71.4 % of control
current in the presence of mono-CBX, % of control (GLIC Y102A): 16.1 % of control
current in the presence of mono-CBX, % of control (GLIC D86A‐D88A): 14.6 % of control
current in the presence of mono-CBX, % of control (GLIC N152A): 9.7 % of control
current in the presence of mono-CBX, % of control (GLIC R133A [3]): 22.7 % of control

CCCC(=O)O [BUTYR, Butanoic acid]
current in the presence of mono-CBX, % of control (WT GLIC [1]): 13.6 % of control
current in the presence of mono-CBX, % of control (100*I CBX/I CONTROL) (WT GLIC [1]): 10.3 % of control
IC50 (WT GLIC [1]; [8]): 219 µM
slope parameter nH (from individual cells) (WT GLIC [1]; pHo 5.5, mean ± SD): 1.5
IC50 (WT GLIC [1]; [7]): 150 µM
ratio of peak current values in the presence and in the absence of compound (Ipk[CBX@5.0]/Ipk[pHo 5.0]) (WT GLIC [2]): 0.257 and 0.332
current decay (h) time constant (WT GLIC [2]): 0.541 s and 0.304 s
impact of the E181A substitution on the NAM effect (GLIC E181A): no impact
peak current inhibition (GLIC R133A [4]): almost fully abolished

O=C(O)/C=C/c1ccc(O)c(O)c1 [CAFFE, caffeic acid]
current in the presence of CAFFE, % of control (WT GLIC [1]; 0.1 mM at pHo 5.0, mean): 17.4 % of control

C/C=C/C(=O)O [CROTON, Butenoic acid]
current in the presence of mono-CBX, % of control (WT GLIC [1]): 13.6 % of control
current in the presence of mono-CBX, % of control (100*I CBX/I CONTROL) (WT GLIC [1]): 11.9 % of control
IC50 (WT GLIC [1]; [8]): 191 µM
ratio of peak current values in the presence and in the absence of compound (Ipk[CBX@5.0]/Ipk[pHo 5.0]) (WT GLIC [2]): 0.228 and 0.244
current decay (h) time constant (WT GLIC [2]): 0.695 s and 0.583 s
impact of the E181A substitution on the NAM effect (GLIC E181A): no impact
peak current inhibition (GLIC R133A [4]): almost fully abolished
decay constant tau of PAM ratio versus control current amplitude (GLIC AA‐N152A): 800 nA
CROTON PAM effect after adding a binding pocket mutation to AA (excluding AA‐N152A) [5]: fully abolished

CC(O)C(=O)O (stereo not drawn) [DL‐lactate]
effect on GLIC current (WT GLIC [1]; [6]): no effect

O=C(O)/C=C/C(=O)O [FUMAR, (E)‐but‐2‐enedioic acid]
current in the presence of di-CBX, % of control (WT GLIC [1]): 194 % of control

NCCCC(=O)O [GABA, γ‐amino butyrate]
effect on GLIC current (WT GLIC [1]; [6]): no effect

CCC(=O)O [PROPION, Propanoic acid]
activity on GLIC current (NAM effect) (WT GLIC [1]): active
reversibility of negative modulation (slow components) (WT GLIC [1]): 3 to 10 min
slope parameter nH (from individual cells) (WT GLIC [1]; pHo 5.5, mean ± SD): 1.1
IC50 (WT GLIC [1]; [7]): 204 µM
ratio of peak current values in the presence and in the absence of compound (Ipk[CBX@5.0]/Ipk[pHo 5.0]) (WT GLIC [2]): 0.380
current decay (h) time constant (WT GLIC [2]): 1.47 s

O=C(O)CCC(=O)O [SUCCIN, Butanedioic acid]
current in the presence of di-CBX, % of control (WT GLIC [1]): 142 % of control
GLIC current with SUCCIN after ACET plateau, % of control current recorded immediately before ACET (WT GLIC [1]; [9]): 143 % of control
GLIC current with SUCCIN after ACET plateau, % of current recorded in the presence of ACET (WT GLIC [1]; [9]): 2170 % of ACET current
peak SUCCIN current (co-application with ACET), % of control current recorded immediately before ACET (WT GLIC [1]; SUCCIN 10 mM co-applied with ACET 1 mM, pHo 5.0, after 90, 120, 180 s of ACET, individual cells): 132 % of control and 28 % of control and 44 % of control
peak SUCCIN current (co-application with ACET), % of ACET current (WT GLIC [1]; SUCCIN 10 mM co-applied with ACET 1 mM, pHo 5.0, individual cells): 753 % of ACET current and 505 % of ACET current and 392 % of ACET current

CCCCC(=O)O [VALER, Pentanoic acid]
IC50 (WT GLIC [1]; IC50 (from individual cells), pHo 5.0, mean ± SD): 289 µM

O=C(O)CC(O)(CC(=O)O)C(=O)O [citrate]
effect on GLIC current (WT GLIC [1]; citrate used as buffer, conditions not given): no effect

NCC(=O)O [glycine]
effect on GLIC current (WT GLIC [1]; [6]): no effect

CC(=O)C(=O)O [pyruvate]
effect on GLIC current (WT GLIC [1]; [6]): no effect

NCCC(=O)O [β‐alanine]
effect on GLIC current (WT GLIC [1]; [6]): no effect

phosphate
effect on GLIC activity (WT GLIC [1]; 1 and 10 mM at pH 5.0, extracellular solution without CaCl2, n = 4 cells): no effect
